{
  "source": "patent US20220175888A1",
  "about": "“CARBOXYLATED OSTEOCALCIN FOR TREATMENT OF AMYLOIDOSIS OR DISEASES ASSOCIATED WITH ABNORMAL PROTEIN FOLDING” (NATIONAL INSTITUTE OF IMMUNOLOGY, priority 2018, published 2022)",
  "key": {"TFEB": {"test_system": "TFEB", "experiment": "TFEB localization, transcription, protein expression and phosphorylation in astrocytes", "type": "cell-based, mouse", "details": "qPCR"}, "astrocytes": {"test_system": "astrocytes", "experiment": "Lysotracker Red / HiLyte Abeta42 confocal microscopy in astrocytes", "type": "cell-based, mouse", "experimental": "This was further confirmed by surface staining of LRP1 and confocal microscopy (FIG. 4Gc). […] We next assessed how Abeta42 degradation occurs in Gla-OC exposed astrocytes. This was assessed by first evaluating the protein expression of LC3II by immunoblot analysis. Under normal conditions excess cargo in cell is cast-off by a cell through a recycling pathway called ‘autophagy’. The first step in autophagy is autophagosome formation wherein LC3I a cytosolic microtubule associated protein light chain 3 gets lipidated to form LC3II and recruits to autophagosomal membranes to allow cells to be LC3II*, a bona fide marker of autophagy and the first step towards autophagic lysosomal degradation. Another requirement for autophagosomes to be functionally relevant is downstream fusion with lysosomes. Under normal conditions, autophagosomes fuse with endosomes to form a higher order organelle called […] ‘amphisomes’, which then matures to form ‘autolysosomes or terminal lysosomes’. The efficiency of autophagosome/lysosome fusion was evaluated using Lysotracker Red, a fluorescent dye that preferentially accumulates in vesicles with acidic pH. The cells were treated with Lysotracker Red for 20 min and fixed using ice-cold methanol. After confocal microscopy (Ziess) the images were analyzed using Image J (NIH). The co-occurrence of the two signals is shown as Mander's overlap co-efficient (MOC) in the range of values 0 to 1. […] This dye accumulates in acidic intracellular organelles and its fluorescence increases with acidic environments and decreases with that of alkaline. The status of lysosome biogenesis was assessed by immunoblot or immunocytochemistry. […] To evaluate lysosome biogenesis the status of LAMP2 (by immunoblot), cathepsins (by immunoblot and colorimetric activity based assay) and TFEB or transcription factor EB (by immunocytochemistry for cellular localization of transcription, by PCR for evaluating gene transcription, by immunoblot for protein expression and by co-immunoprecipitation and immunoblot to check phosphorylation of TFEB) were evaluated. […]"}, "[1]": {"experiment": "Gla-OC and Glu-OC in serum by ELISA", "type": "in vivo", "details": "5×FAD Tg mice vs Tg controls, 300 ng per mouse per day", "excerpt": "Two-month old 5×FAD Tg mice, both male as well as female were used for the study. For the purposes of this study wild type mice is referred to as Wt and 5×FAD mice is referred to as Tg. All experimental procedures in were approved by the Institutional Animal Ethics Committee. For experimentation, the mice were divided in below groups for treatment:\n1. Wild type mice given vehicle (lx PBS or phosphate buffered saline; pH 7.4). 2. 5×FAD Transgenic mice given vehicle. 3. 5×FAD Transgenic mice given carboxylated osteocalcin (Gla-OC) subcutaneously at doses (300 ng-1000 ng per mouse of weight ranging from 25-28 g for 1 month). 4. Wild type mice given Gla-OC.\nForemost the status of osteocalcin in long bones and serum of amyloid overexpressing 5×FAD Tg mice was evaluated. Thereafter, the effect of osteocalcin administration against amyloidosis in brain was tested. 1. The status of osteocalcin expression in bone was determined by evaluating the mRNA level of Bglap2 gene (gene that encodes osteocalcin in mouse) using quantitative PCR or qPCR. Long bones of mice like femur and tibia were harvested from mice after sacrifice. […] Following amplification, fold changes in gene expression versus β-actin (reference) analysis was determined using the […] (Livak) method. […] Carboxylated (Gla-OC) and undercarboxylated (Glu-OC) forms of osteocalcin in serum of mice was analyzed by ELISA. […]"}},
  "note": "Positions of bridges follow the written chain, without caps; N, C: chain ends. Non-standard residues stand in square brackets, D forms with d. No end group written: not given here. Gla = N[C@@H](CC(C(=O)O)C(=O)O)C(=O)O",
  "data": [
    {"molecule": "Cn1cnc(N)c2ncnc1-2", "note": "[3-methyl adenine]", "values": [
      {"measurement": "transcription of Tfeb gene in the presence of autophagy inhibitors", "setting": "TFEB", "result": "increased"}
    ]},
    {"molecule": "CCN(CC)CCCC(C)Nc1ccnc2cc(Cl)ccc12", "note": "(stereo not drawn) [chloroquine]", "values": [
      {"measurement": "transcription of Tfeb gene in the presence of autophagy inhibitors", "setting": "TFEB", "result": "increased"}
    ]},
    {"molecule": "HiLyte Abeta42: fluorescent HiLyte labelled Abeta42 peptide added to astrocytes; challenge agent, Abeta42 alone comparator", "values": [
      {"measurement": "number of Lysotracker Red puncta, lower as compared to basal", "setting": "astrocytes; HiLyte Abeta42 treated cells without Gla-OC", "result": 4, "unit": "fold"},
      {"measurement": "size of Lysotracker Red puncta", "setting": "astrocytes; astrocyte cultures", "result": "< 0.25", "unit": "μm^2"},
      {"measurement": "degree of co-localization of HiLyte Abeta42 with Lysotracker Red (Mander's overlap co-efficient)", "setting": "astrocytes; range of values 0 to 1, Image J analysis", "result": 0.412}
    ]},
    {"molecule": "YLYQWLGAPVPYPDPL[Gla]PRR[Gla]VC[Gla]LNPDCDELADHIGFQEAYRRFYGPV (disulfide 23-29) [Gla-OC, carboxylated osteocalcin]", "values": [
      {"measurement": "level of Gla-OC in serum", "setting": "[1]", "result": "significantly increased (p<0.05)"}
    ]}
  ]
}
